Reference: patent US6989371B1, “Bombesin analogs for treatment of cancer” (Dabur Research Foundation, priority 1996, dated 2006)
Non-standard residues stand in square brackets, D forms with d. Residues, ends and D or L forms follow the SMILES beside them. Aib = CC(C)(N)C(=O)O

Legend:
[1] = test system: MCF-7 MIII human breast cancer cell line xenografts; settings: MCF-7 MIII xenografts, female athymic nude mice, after 2 weeks of treatment, alone or in combination with SB-75; cited from earlier work
[2] = test system: human gastric cancer cell line Hs746T xenografts; settings: nude mice bearing Hs746T xenografts; cited from earlier work
[3] = test system: A549 (non small lung cell); experiment: two day MTT cytotoxicity assay (Example 12); type: cell-based, human
Procedure: (§1) The cytoxicity of the peptide analog was carried out by two day MTT [3-(4,5-dimethylthiazol-2-yl)-2,5-diphenyl tetrazolium bromide]assay. MTT assay is based on the principle of uptake of MTT, a tetrazolium salt, by metabolically active cells where it is metabolized by active mitochondria into a blue colored formazon product, which can be read spectrometrically (J. of Immunological Methods 65: 55–63, 1983). To prepare the MTT stock solution needed, MTT was dissolved in phosphate buffered saline with a pH of 7.4 to obtain an MTT concentration of 5 mg/ml; the resulting mixture was filtered through a 0.22 micron filter to sterilize and remove a small amount of insoluble residue. This filtered mixture was the MTT stock solution.
(§2) Briefly, for each tumor type, 10,000 cells were seeded in 96-well tissue culture plate and incubated with each peptide concentration individually in a CO2 incubator for 48 hrs. The peptide analog at different concentrations was added once every 24 hrs during the incubation period. Control cultures, which were not treated with the peptide was similarly incubated. The assay was terminated by adding 100 μg (20 μl) of MTT to each well, incubating for three hours, decanting supernatant and finally adding 150 μl of dimethylsulphoxide to each well to dissolve the formazon. The plates were incubated for 15 minutes at 37° C. and read spectrophotometrically at 540 nm; and cytotoxicity percentage was calculated by following formula: • Cytotoxicity Percentage=100×[1−X/R1], • where X=(absorbance of the treated sample at 540 nm-absorbance of a blank at 540 nn) and • R1=(absorbance of the untreated control at 540 nm)—(absorbance of the blank at 540 nm).
(§3) Thus in each of the MTT cytotoxicity assay the percentage was calculated according to the above formula and was based on the proliferation of the untreated controls, the value of which was considered as 100°0.
(§4) The biological activity of synthesized peptide SEQ ID NO:3 was tested on different human tumor cell lines such as HT-29 & PTC (colon), A549 (non small lung cell), KB (oral squamous cell), MCF7 & MDA.MB.453 (Breast), HuTu80 (duodenum), PA-1 (ovary), MOLT-4 (leukemia) and MlAPaCa2 (Pancreas) at various molar concentrations.

HT-29 (colon) = experiment: two day MTT cytotoxicity assay (Example 12); type: cell-based, human
Procedure: as §1, §2, §3, §4

HuTu80 (duodenum) = experiment: two day MTT cytotoxicity assay (Example 12); type: cell-based, human
Procedure: as §1, §2, §3, §4

KB (oral squamous cell) = experiment: two day MTT cytotoxicity assay (Example 12); type: cell-based, human; settings: 48 hrs
Procedure: as §1, §2, §3, §4

MCF7 (Breast) = experiment: two day MTT cytotoxicity assay (Example 12); type: cell-based, human
Procedure: as §1, §2, §3, §4

MDA.MB.453 (Breast) = experiment: two day MTT cytotoxicity assay (Example 12); type: cell-based, human
Procedure: as §1, §2, §3, §4

MOLT-4 (leukemia) = experiment: two day MTT cytotoxicity assay (Example 12); type: cell-based, human
Procedure: as §1, §2, §3, §4

MlAPaCa2 (Pancreas) = experiment: two day MTT cytotoxicity assay (Example 12); type: cell-based, human
Procedure: as §1, §2, §3, §4

PA-1 (ovary) = experiment: two day MTT cytotoxicity assay (Example 12); type: cell-based, human
Procedure: as §1, §2, §3, §4

PTC (colon) = experiment: two day MTT cytotoxicity assay (Example 12); type: cell-based, human; settings: 48 hrs
Procedure: as §1, §2, §3, §4

intact SCLC cells = settings: 37° C., RPMI medium, 0–1080 minutes; cited from earlier work
SCLC xenograft = settings: in vivo; cited from earlier work

For “(DTpi6, Leu3, psi[CH2NH]—Leu14) bombesin (6–14) [RC-3095]”, the tumor volume [1] is given as “significant inhibition of tumor volume” and the tumor growth [2] is given as “effectively inhibited tumor growth”.

`CC(C)C[C@H](NC(=O)[C@H](Cc1c[nH]cn1)NC(=O)C(C)(C)NC(=O)[C@@H](NC(=O)[C@H](C)NC(=O)[C@H](Cc1c[nH]c2ccccc12)NC(=O)[C@H](CCC(N)=O)NC(=O)[C@H](N)Cc1ccccc1)C(C)C)C(N)=O` [SEQ ID NO: 3, D-Phe-Gln-Trp-Ala-Val-Aib-His-Leu-NH2] (H-[dF]QWAV[Aib]HL-NH2; N-terminus assumed) showed a Percentage cytotoxicity ([3]; A549, 10 pM, 48 hrs) of 30.5 ± 3.5%, a Percentage cytotoxicity ([3]; A549, 100 pM, 48 hrs) of 25.2 ± 3.5% and a Percentage cytotoxicity ([3]; A549, 10 nM, 48 hrs) of 32.2 ± 5.5%. It also gave a Percentage cytotoxicity ([3]; A549, 100 nM, 48 hrs) of 23.6 ± 4.5%, a Percentage cytotoxicity ([3]; A549, 1 μM, 48 hrs) of 30.7 ± 6.5% and a Percentage cytotoxicity ([3]; A549, 48 hrs) of 32.4 ± 4.5%. For the same molecule, the Percentage cytotoxicity (HT-29 (colon); HT29, 10 pM, 48 hrs) was 18.7 ± 4.5%, the Percentage cytotoxicity (HT-29 (colon); HT29, 100 pM, 48 hrs) was 19.9 ± 5.5% and the Percentage cytotoxicity (HT-29 (colon); HT29, 10 nM, 48 hrs) was 11.8 ± 5.0%. The Percentage cytotoxicity (HT-29 (colon); HT29, 100 nM, 48 hrs) was 17.8 ± 4.5%, the Percentage cytotoxicity (HT-29 (colon); HT29, 1 μM, 48 hrs) was 25.4 ± 5.5% and the Percentage cytotoxicity (HT-29 (colon); HT29, 48 hrs) was 20.3 ± 4.5%. It also gave a Percentage cytotoxicity (HuTu80 (duodenum); HuTu80, 10 pM, 48 hrs) of 10.3 ± 3.5%, a Percentage cytotoxicity (HuTu80 (duodenum); HuTu80, 100 pM, 48 hrs) of 14.7 ± 4.2% and a Percentage cytotoxicity (HuTu80 (duodenum); HuTu80, 10 nM, 48 hrs) of 14.3 ± 3.5%. For the same molecule, the Percentage cytotoxicity (HuTu80 (duodenum); HuTu80, 100 nM, 48 hrs) was 15.5 ± 4.7%, the Percentage cytotoxicity (HuTu80 (duodenum); HuTu80, 1 μM, 48 hrs) was 12.2 ± 4.0% and the Percentage cytotoxicity (HuTu80 (duodenum); HuTu80, 48 hrs) was 13.3 ± 4.0%. It also gave a Percentage cytotoxicity (KB (oral squamous cell); 10 pM) of 40.9 ± 5.5%, a Percentage cytotoxicity (KB (oral squamous cell); 100 pM) of 26.4 ± 4.5% and a Percentage cytotoxicity (KB (oral squamous cell); 10 nM) of 30.9 ± 5.5%. For the same molecule, the Percentage cytotoxicity (KB (oral squamous cell); 100 nM) was 31.6 ± 6.5%, the Percentage cytotoxicity (KB (oral squamous cell); 1 μM) was 32.1 ± 5.0% and the Percentage cytotoxicity (KB (oral squamous cell)) was 30.4 ± 6.5%. The Percentage cytotoxicity (MCF7 (Breast); MCF 7, 10 pM, 48 hrs) was 39.33 ± 2.6%, the Percentage cytotoxicity (MCF7 (Breast); MCF 7, 100 pM, 48 hrs) was 38.95 ± 4.5% and the Percentage cytotoxicity (MCF7 (Breast); MCF 7, 10 nM, 48 hrs) was 24.35 ± 5%. For the same molecule, the Percentage cytotoxicity (MCF7 (Breast); MCF 7, 100 nM, 48 hrs) was “Nil”, the Percentage cytotoxicity (MCF7 (Breast); MCF 7, 1 μM, 48 hrs) was “Nil” and the Percentage cytotoxicity (MCF7 (Breast); MCF 7, 48 hrs) was 30.68 ± 6%. For the same molecule, the Percentage cytotoxicity (MDA.MB.453 (Breast); MDA.MB.453, 10 pM, 48 hrs) was 49.5 ± 4.2%, the Percentage cytotoxicity (MDA.MB.453 (Breast); MDA.MB.453, 100 pM, 48 hrs) was 25.5 ± 2.9% and the Percentage cytotoxicity (MDA.MB.453 (Breast); MDA.MB.453, 10 nM, 48 hrs) was “Nil”. It also gave a Percentage cytotoxicity (MDA.MB.453 (Breast); MDA.MB.453, 100 nM, 48 hrs) of 11.2 ± 3.1%, a Percentage cytotoxicity (MDA.MB.453 (Breast); MDA.MB.453, 1 μM, 48 hrs) of 5.6 ± 3.5% and a Percentage cytotoxicity (MDA.MB.453 (Breast); MDA.MB.453, 48 hrs) of 9.6 ± 1.9%. The Percentage cytotoxicity (MOLT-4 (leukemia); MOLT-4, 10 pM, 48 hrs) was 49.9 ± 4.1%, the Percentage cytotoxicity (MOLT-4 (leukemia); MOLT-4, 100 pM, 48 hrs) was 15.9 ± 3.0% and the Percentage cytotoxicity (MOLT-4 (leukemia); MOLT-4, 10 nM, 48 hrs) was “Nil”. The Percentage cytotoxicity (MOLT-4 (leukemia); MOLT-4, 100 nM, 48 hrs) was 1.4 ± 1.0%, the Percentage cytotoxicity (MOLT-4 (leukemia); MOLT-4, 1 μM, 48 hrs) was 9.0 ± 1.2% and the Percentage cytotoxicity (MOLT-4 (leukemia); MOLT-4, 48 hrs) was 1.0 ± 0.4%. For the same molecule, the Percentage cytotoxicity (MlAPaCa2 (Pancreas); MIAPaCa2, 10 pM, 48 hrs) was 27.4 ± 4.5%, the Percentage cytotoxicity (MlAPaCa2 (Pancreas); MIAPaCa2, 100 pM, 48 hrs) was 28.2 ± 4.5% and the Percentage cytotoxicity (MlAPaCa2 (Pancreas); MIAPaCa2, 10 nM, 48 hrs) was 33.2 ± 6.7%. It also gave a Percentage cytotoxicity (MlAPaCa2 (Pancreas); MIAPaCa2, 100 nM, 48 hrs) of 30.3 ± 4.2%, a Percentage cytotoxicity (MlAPaCa2 (Pancreas); MIAPaCa2, 1 μM, 48 hrs) of 33.3 ± 4.5% and a Percentage cytotoxicity (MlAPaCa2 (Pancreas); MIAPaCa2, 48 hrs) of 36.4 ± 0.5%. For the same molecule, the Percentage cytotoxicity (PA-1 (ovary); PA-1, 10 pM, 48 hrs) was 37.7 ± 3.9%, the Percentage cytotoxicity (PA-1 (ovary); PA-1, 100 pM, 48 hrs) was 40.1 ± 6.2% and the Percentage cytotoxicity (PA-1 (ovary); PA-1, 10 nM, 48 hrs) was 25.4 ± 4.2%. It also gave a Percentage cytotoxicity (PA-1 (ovary); PA-1, 100 nM, 48 hrs) of 34.2 ± 5.8%, a Percentage cytotoxicity (PA-1 (ovary); PA-1, 1 μM, 48 hrs) of 31.2 ± 5.1% and a Percentage cytotoxicity (PA-1 (ovary); PA-1, 48 hrs) of 36.1 ± 6.1%. For the same molecule, the Percentage cytotoxicity (PTC (colon); 10 pM) was 80.0 ± 7.1%, the Percentage cytotoxicity (PTC (colon); 100 pM) was 26.5 ± 3.8% and the Percentage cytotoxicity (PTC (colon); 10 nM) was 27.7 ± 3.6%. For the same molecule, the Percentage cytotoxicity (PTC (colon); 100 nM) was 27.7 ± 2.8%, the Percentage cytotoxicity (PTC (colon); 1 μM) was 17.9 ± 2.5% and the Percentage cytotoxicity (PTC (colon)) was 23.8 ± 2.8%.

In the case of [Psi 13, 14] Bombesin, the “TI/2 (stability to metabolic enzymes)” value (intact SCLC cells) is listed as 646 min and the SCLC xenograft formation (SCLC xenograft) is listed as “inhibited SCLC xenograft formation in vivo in a dose-dependent manner”.
